Assay results as given in ChEMBL document CHEMBL4229515, “A novel synthesis of 2-arylbenzimidazoles in molecular sieves-MeOH system and their antitubercular activity” (Bioorg Med Chem, 2018).

Tests used:
[1] = test system: Mus musculus; assay: Acute toxicity in Swiss albino mouse assessed as effect on SGPT levels at 1000 mg/kg, po after 7 days (reference value: 16.08 +/- 1.38 U/L); type: organism-based; conditions: in vivo, 168 h
[2] = test system: Mus musculus; assay: Acute toxicity in Swiss albino mouse assessed as effect on GSH levels per mg of tissue protein at 50 mg/kg, po after 7 days (reference value: 17.64 +/- 1.03 micromol); type: organism-based; conditions: in vivo, 168 h
[3] = test system: Mus musculus; assay: Acute toxicity in Swiss albino mouse assessed as effect on MDA levels per mg of tissue protein at 1000 mg/kg, po after 7 days (reference value: 0.24 +/- 0.05 nmol); type: organism-based; conditions: in vivo, 168 h
[4] = Lipophilicity, log P of the compound; type: physicochemical; conditions: octanol/water; read-out: logP

Compound `COc1ccc2c(c1)nc(-c1ccccc1OC)n2Cc1ccccc1OC` has an Activity [1] of 11.72 U/L, an Activity [2] of 17.1 µmol and an Activity [3] of 0.71 nmol. For the same compound, the logP [4] was 4.45.
